Data reported in ChEMBL document CHEMBL6127149, “Novel Papain-Like Protease Inhibitors for Treating Viral Infections, in Particular Coronavirus Infections” (ACS Med Chem Lett, 2024).

Each molecule was assayed against Replicase polyprotein 1ab (Severe acute respiratory syndrome coronavirus 2, UniProt P0DTD1) (assay: Inhibition of SARS-CoV-2 PLpro using Z-RLRGG-AMC as substrate preincubated for 30 mins followed by substrate addition and measured after 60 mins by SpectraMax microplate reader analysis).

| SMILES | IC50 [nM] |
| --- | --- |
| CCOC(=O)[C@@H]1O[C@H]1C(=O)NNC(=O)CCc1ccccc1C(=O)N[C@H](N)c1cc(-c2cnn(C)c2)nc2ccccc12 | 2 |
| Cn1cc(-c2cc([C@@H](N)NC(=O)c3ccccc3CCC(=O)NNC(=O)[C@H]3O[C@@H]3C(=O)O)c3ccccc3n2)cn1 | 1 |
| CCOC(=O)[C@H]1O[C@@H]1C(=O)NNC(=O)CCc1ccccc1C(=O)N[C@H](N)c1cc(-c2cnn(C)c2)nc2ccccc12 | 2 |
| COC(=O)[C@H]1O[C@@H]1C(=O)NNC(=O)CCc1ccccc1C(=O)N[C@H](N)c1cc(-c2cnn(C)c2)nc2ccccc12 | 2 |
